Data reported in US12276654B2, “Chemical probe-dependent evaluation of protein activity and uses thereof” (The University of Chicago, priority 2017, dated 2025).
Like-named read-outs stand apart in the source and are kept apart here.

What was measured:
NCEH1 [1] = target: T1, NCEH1 (Homo sapiens, UniProt Q6PIU2); assay: sADPL in situ target engagement in cancer cells, NCEH1; assay type: cell-based; set-up: endogenous NCEH1 activity in SKOV3 cells; endogenous in cells; host or cells: SKOV3; wild-type PC3; PAFAH2-expressing PC3; details: inhibitor prior to family-wide probe
T1 sequence (Q6PIU2 1-408): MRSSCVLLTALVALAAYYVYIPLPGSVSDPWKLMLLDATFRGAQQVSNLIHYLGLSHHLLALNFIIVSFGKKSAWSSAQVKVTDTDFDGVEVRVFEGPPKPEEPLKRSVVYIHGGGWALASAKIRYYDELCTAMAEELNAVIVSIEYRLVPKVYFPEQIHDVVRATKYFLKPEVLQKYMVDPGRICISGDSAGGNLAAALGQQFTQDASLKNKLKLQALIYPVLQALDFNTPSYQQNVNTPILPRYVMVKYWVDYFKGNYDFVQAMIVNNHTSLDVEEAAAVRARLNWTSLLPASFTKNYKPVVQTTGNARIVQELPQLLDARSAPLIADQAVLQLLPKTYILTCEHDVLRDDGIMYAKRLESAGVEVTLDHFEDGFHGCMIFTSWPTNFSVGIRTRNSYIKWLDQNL
Method: FIG. 23. In situ Target Engagement. Cancer cells were treated with DMSO as the control, with inhibitor prior to family wide probe to pre-block the active site, or with family-wide probe directly. Then sADPL workflow was applied to read out the CT difference. Serine hydrolase NCEH1 and its specific inhibitor JW480, or FAAH and inhibitor PF3845 were applied. The activity fold change was transformed from CT value with PCR amplification factor 1.91 determined by a standard qPCR curve and the activities were normalized to DMSO control at different cell lysate concentrations. […] To quantitatively measure the target engagement, different dose of JW480 was applied to either its target NCEH1, or off-target MGLL.
As another alternative detection method, sADPL is complementary with gel-based and MS-based detection methods. In this design, the inventors treat the live cell with several family-wide probes. The probes will label all the members of the protein families. Then one could get the labeled proteome after the cell lysis. […]
A summary of this assay is provided below: • 1. […] In the oligo design, the orthogonal forward primers were employed for different antibody to enable the multiplexing real time PCR readout. […]
Two amine modified oligos were conjugated to antibody and streptavidin, respectively. […] A Taqman probe was designed for real time PCR quantification. […]

NCEH1 [2] = target: T1, NCEH1; set-up: endogenous NCEH1 activity in SKOV3 cells; endogenous in cells; host or cells: SKOV3; wild-type PC3; PAFAH2-expressing PC3; details: previously reported; PC3 cells; read-out: IC50 for NCEH1 previously reported by gel-based profiling; cited from earlier work

Which IC50 (NCEH1 [1]; cancer cells treated in situ, read-out: apparent IC50, dose-dependent inhibition of NCEH1 by sADPL) does the source give for CC(C)c1ccccc1OC(=O)NCCc1ccc2ccccc2c1 [JW480] here?
The IC50 was 17.8 nM.

And the “NCEH1 activity in inhibitor competition group by sADPL, normalized to DMSO control” value (NCEH1 [1]; cancer cells)?
The value was “bring the activities down to the levels of DMSO controls”.

What about the IC50 (NCEH1 [2]) of the same compound?
Its IC50 is 12 nM.
